Test system: rats
Experiment: Spontaneous withdrawal tests (body weight)
Format: in vivo
Settings: for Weight after withdrawal compared with weight one day before withdrawal: IV-12-2 100 mg/kg
[1] = IV-12-1 (75 mg/kg), 144 h after withdrawal
[2] = IV-12-1 (75 mg/kg), 156 h after withdrawal
[3] = IV-12-1 (75 mg/kg), 162 h after withdrawal
[4] = IV-12-1 (75 mg/kg), 168 h after withdrawal
[5] = IV-12-2 (75 mg/kg), 12 h after withdrawal
[6] = IV-12-2 (75 mg/kg), 18 h after withdrawal
[7] = IV-12-2 (75 mg/kg), 24 h after withdrawal
[8] = IV-12-2 (75 mg/kg), 36 h after withdrawal
[9] = IV-12-2 (75 mg/kg), 42 h after withdrawal
[10] = IV-12-2 (75 mg/kg), 48 h after withdrawal
[11] = IV-12-2 (75 mg/kg), 66 h after withdrawal
[12] = IV-12-2 (75 mg/kg), 72 h after withdrawal
[13] = IV-12-2 (75 mg/kg), 84 h after withdrawal
[14] = IV-12-2 (75 mg/kg), 90 h after withdrawal
[15] = IV-12-2 (75 mg/kg), 96 h after withdrawal
[16] = IV-12-2 (75 mg/kg), 108 h after withdrawal
[17] = IV-12-2 (75 mg/kg), 120 h after withdrawal
[18] = IV-12-2 (75 mg/kg), 138 h after withdrawal
[19] = IV-12-2 (75 mg/kg), 144 h after withdrawal
[20] = IV-12-2 (75 mg/kg), 156 h after withdrawal
[21] = IV-12-2 (75 mg/kg), 162 h after withdrawal
[22] = IV-12-2 (75 mg/kg), 168 h after withdrawal

Nc1ccc(CN2CCN(CC(=O)c3ccccc3)CC2)cc1 [IV-12, N^1-(4-aminobenzyl)-N^4-phenacyl piperazine]
Increase (%) of weight [1]: 9.8% | Weight [1]: 264.7 ± 42 g | Increase (%) of weight [2]: 15.7% | Weight [2]: 279.0 ± 44 g | Increase (%) of weight [3]: 12.4% | Weight [3]: 271.0 ± 44 g | Increase (%) of weight [4]: 11.7% | Weight [4]: 269.2 ± 45 g | Weight (IV-12-1 (75 mg/kg), before withdraw): 241.1 ± 38 g | Weight after withdrawal compared with weight one day before withdrawal (♀, 42 h after withdrawal): 1.01 ± 0.05 | Weight after withdrawal compared with weight one day before withdrawal (♀, 66 h after withdrawal): 1.01 ± 0.06 | Weight after withdrawal compared with weight one day before withdrawal (♀, 90 h after withdrawal): 1.02 ± 0.06 | Weight after withdrawal compared with weight one day before withdrawal (♀, 114 h after withdrawal): 1.02 ± 0.07 | Weight after withdrawal compared with weight one day before withdrawal (♀, 138 h after withdrawal): 1.04 ± 0.07 | Weight after withdrawal compared with weight one day before withdrawal (♀, 162 h after withdrawal): 1.04 ± 0.07 | Weight after withdrawal compared with weight one day before withdrawal (♂, 18 h after withdrawal): 0.99 ± 0.04 | Weight after withdrawal compared with weight one day before withdrawal (♂, 42 h after withdrawal): 1.00 ± 0.04 | Weight after withdrawal compared with weight one day before withdrawal (♂, 66 h after withdrawal): 1.00 ± 0.05 | Weight after withdrawal compared with weight one day before withdrawal (♂, 90 h after withdrawal): 1.00 ± 0.04 | Weight after withdrawal compared with weight one day before withdrawal (♂, 114 h after withdrawal): 1.01 ± 0.04 | Weight after withdrawal compared with weight one day before withdrawal (♂, 138 h after withdrawal): 1.03 ± 0.06 | Weight after withdrawal compared with weight one day before withdrawal (♂, 162 h after withdrawal): 1.04 ± 0.08 | Increase (%) of weight [5]: 2.0% | Weight [5]: 259.8 ± 34 g | Increase (%) of weight [6]: 2.0% | Weight [6]: 259.8 ± 33 g | Increase (%) of weight [7]: 0.4% | Weight [7]: 255.9 ± 32 g | Increase (%) of weight [8]: 1.9% | Weight [8]: 259.5 ± 33 g | Increase (%) of weight [9]: 1.4% | Weight [9]: 258.5 ± 32 g | Increase (%) of weight [10]: 0.8% | Weight [10]: 256.8 ± 31 g | Weight (IV-12-2 (75 mg/kg), 60 h after withdrawal): 259.6 ± 31 g | Increase (%) of weight [11]: 0.8% | Weight [11]: 256.8 ± 27 g | Increase (%) of weight [12]: 0.4% | Weight [12]: 255.7 ± 29 g | Increase (%) of weight [13]: 3.4% | Weight [13]: 263.6 ± 30 g | Increase (%) of weight [14]: 1.3% | Weight [14]: 258.2 ± 30 g | Increase (%) of weight [15]: 0.9% | Weight [15]: 257.1 ± 28 g | Increase (%) of weight [16]: 4.5% | Weight [16]: 266.3 ± 33 g | Increase (%) of weight (IV-12-2 (75 mg/kg), 114 h after withdrawal): 2.1% | Increase (%) of weight [17]: 1.4% | Weight [17]: 258.3 ± 29 g | Weight (IV-12-2 (75 mg/kg), 132 h after withdrawal): 272.6 ± 35 g | Increase (%) of weight [18]: 4.0% | Weight [18]: 264.9 ± 32 g | Increase (%) of weight [19]: 3.5% | Weight [19]: 263.6 ± 32 g | Increase (%) of weight [20]: 6.6% | Weight [20]: 271.5 ± 40 g | Increase (%) of weight [21]: 4.9% | Weight [21]: 267.2 ± 38 g | Increase (%) of weight [22]: 4.5% | Weight [22]: 266.3 ± 36 g | Weight (IV-12-2 (75 mg/kg), before withdraw): 254.8 ± 32 g
